Test results from the supplement of paper PMC8967900.

How the values were obtained:
Test in all cases: selective drug sensitivity score (sDSS, relative to normal bone marrow) (sDSS (score)); higher = more potent and effective on the cell line relative to normal bone marrow cells
Details in all cases: 72 h
HPB-ALL = system: HPB-ALL
COG-LL-402h = system: COG-LL-402h
HAL-01 = system: HAL-01
TMD5 = system: TMD5
KASUMI-2 = system: KASUMI-2
RPMI-8402 = system: RPMI-8402
REH = system: REH
DND-41 = system: DND-41
KASUMI-10 = system: KASUMI-10
P12-ICHIKAWA = system: P12-ICHIKAWA
RCH-ACV = system: RCH-ACV
MOLT-4 = system: MOLT-4
CCRF-HSB2 = system: CCRF-HSB2
SUP-B15 = system: SUP-B15
KASUMI-9 = system: KASUMI-9
TANOUE = system: TANOUE
COG-LL-317 = system: COG-LL-317
KOPN-8 = system: KOPN-8
MOLT-14 = system: MOLT-14
KARPAS-45 = system: KARPAS-45
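Further: ALL cell lines in 384-well plates, five doses spanning 10,000-fold, each plate scaled between vehicle and 100 µmol/L benzalkonium chloride controls, sDSS an adapted area-under-curve metric.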

| Compound | selective drug sensitivity score (HPB-ALL) | selective drug sensitivity score (COG-LL-402h) | selective drug sensitivity score (HAL-01) | selective drug sensitivity score (TMD5) | selective drug sensitivity score (KASUMI-2) | selective drug sensitivity score (RPMI-8402) | selective drug sensitivity score (REH) | selective drug sensitivity score (DND-41) | selective drug sensitivity score (KASUMI-10) | selective drug sensitivity score (P12-ICHIKAWA) | selective drug sensitivity score (RCH-ACV) | selective drug sensitivity score (MOLT-4) | selective drug sensitivity score (CCRF-HSB2) | selective drug sensitivity score (SUP-B15) | selective drug sensitivity score (KASUMI-9) | selective drug sensitivity score (TANOUE) | selective drug sensitivity score (COG-LL-317) | selective drug sensitivity score (KOPN-8) | selective drug sensitivity score (MOLT-14) | selective drug sensitivity score (KARPAS-45) |
| --- | --- | --- | --- | --- | --- | --- | --- | --- | --- | --- | --- | --- | --- | --- | --- | --- | --- | --- | --- | --- |
| CC(=O)Nc1cccc(-n2c(=O)n(C3CC3)c(=O)c3c(Nc4ccc(I)cc4F)n(C)c(=O)c(C)c32)c1 [Trametinib] (top concentration 250 nM) | -0.24 | -2.54 | 2.36 | 0.16 | 5.86 | -8.04 | -8.04 | 2.16 | -5.34 | -3.64 | -8.04 | -4.54 | -1.54 | 13.6 | -1.14 | -7.74 | -7.74 | 4.36 | 6.96 | -7.14 |
| Cn1cncc1[C@@](N)(c1ccc(Cl)cc1)c1ccc2c(c1)c(-c1cccc(Cl)c1)cc(=O)n2C [Tipifarnib] (top concentration 10000 nM) | 6.1 | 6.6 | 6.3 | 6.8 | -1.3 | 20.9 | 14 | 2.8 | 3 | 9.6 | 6.9 | 6.8 | 9.4 | 8.9 | 3.1 | -7.5 | 15.3 | 11.2 | 11.9 | 25.4 |
| CNc1nc(-c2ccc3c(N)n[nH]c3c2)cc(N2C[C@@H](C(=O)NC3CCCCC3)CC[C@H]2C)n1 (top concentration 10000 nM) | 1.86 | 6.36 | -0.14 | 2.16 | 7.26 | -0.14 | 3.86 | 1.96 | 0.46 | -0.14 | 18.6 | -0.14 | -0.14 | 9.96 | 6.36 | 0.16 | -0.14 | 7.26 | -0.14 | -0.14 |
| CS(=O)(=O)c1ccc(C(=O)Nc2ccc(Cl)c(-c3ccccn3)c2)c(Cl)c1 [Vismodegib] (top concentration 10000 nM) | 0.76 | -1.14 | -1.14 | 1.26 | 3.96 | -1.14 | -1.14 | 2.76 | -1.14 | -1.14 | 3.46 | -0.44 | -1.14 | 11.3 | -0.74 | -1.14 | -1.14 | 6.76 | -1.14 | -1.14 |
| Cn1nccc1Nc1nccc(-c2ccn([C@H](CO)c3ccc(Cl)c(F)c3)c(=O)c2)n1 [Ravoxertinib] (top concentration 10000 nM) | -0.4 | 3.4 | 1.9 | 3.2 | 4.2 | 1.9 | 1.2 | 4.5 | 5.2 | 2.1 | 4.5 | -1.2 | -1.2 | 12.6 | 5.3 | -3.2 | 4.8 | 13.6 | 0.1 | 2.4 |
| COc1cc2c(Oc3ccc(NC(=O)C4(C(=O)Nc5ccc(F)cc5)CC4)cc3F)ccnc2cc1OCCCN1CCOCC1 [Foretinib] (top concentration 1000 nM) | 3.34 | 1.64 | 3.34 | 2.64 | -2.96 | 0.34 | 0.24 | -4.46 | 17.8 | 1.34 | 0.44 | 0.64 | 6.24 | 8.74 | -0.06 | -4.46 | 0.44 | 7.84 | 1.94 | 2.44 |
| CC1(COc2ccc3c(c2)ncn3-c2ccc3cccc(N4CCC(N)CC4)c3n2)COC1 [Crenolanib] (top concentration 10000 nM) | -3.12 | 0.68 | -1.82 | -0.02 | -5.22 | -2.72 | -4.32 | 0.98 | 12.9 | -2.62 | -1.12 | -4.02 | 4.98 | 0.88 | -0.02 | -9.32 | 2.08 | 0.68 | -1.22 | 1.28 |
| CCCCc1nc2cc(/C=C/C(=O)NO)ccc2n1CCN(CC)CC [Pracinostat] (top concentration 10000 nM) | 6.88 | 13 | 1.88 | 5.78 | 12.5 | 5.08 | 0.38 | 3.48 | 6.18 | 5.08 | 14.6 | 3.48 | 5.88 | 5.98 | 8.18 | -7.72 | 3.88 | 8.68 | 6.18 | 9.78 |
| CC1(C)OCCn2c1nc1c(N3CCOCC3)nc(-c3cnc(N)nc3)nc12 [GDC-0084] (top concentration 10000 nM) | 3.2 | 7.5 | 11 | 6.6 | 6 | 5.1 | 8.8 | 1.8 | 3.9 | 4.1 | 20.8 | 6.9 | 6.1 | 5.1 | 9.5 | -4.9 | 3.1 | 13.2 | 1.3 | 5.1 |
